Test results reported in article PMC6120666 (The EMBO Journal, 2018).

Assays:
Assay in all cases: Drug affinity chromatography with c-ponatinib and LC-MS/MS (ponatinib interactome)
Format in all cases: binding
[1] = biological target: T1, proteins of U2OS cell lysate (Homo sapiens, UniProt P12814)
T1 construct: Proteins enriched by c-ponatinib from U2OS cell lysate; endogenous in cells; host or cells: U2OS cell lysate
Outline: (§1)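 Proteins were identified by nano-UPLC–MS/MS after elution with formic acid and trypsin digestion. They were captured from U2OS lysate (2 mg protein per pulldown, NP-40 buffer) on amine-coupled NHS beads during a 2 h incubation at 4 °C.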

[2] = biological target: T2, proteins of U2OS cell lysate (Homo sapiens, UniProt P28072)
T2 construct: Proteins enriched by c-ponatinib from U2OS cell lysate; endogenous in cells; host or cells: U2OS cell lysate
Outline: as §1

[3] = biological target: T3, proteins of U2OS cell lysate (Homo sapiens, UniProt P29597)
T3 construct: Proteins enriched by c-ponatinib from U2OS cell lysate; endogenous in cells; host or cells: U2OS cell lysate
Outline: as §1

[4] = biological target: T4, proteins of U2OS cell lysate (Homo sapiens, UniProt P10515)
T4 construct: Proteins enriched by c-ponatinib from U2OS cell lysate; endogenous in cells; host or cells: U2OS cell lysate
Outline: as §1

[5] = biological target: T5, proteins of U2OS cell lysate (Homo sapiens, UniProt Q13233)
T5 construct: Proteins enriched by c-ponatinib from U2OS cell lysate; endogenous in cells; host or cells: U2OS cell lysate
Outline: as §1

[6] = biological target: T6, proteins of U2OS cell lysate (Homo sapiens, UniProt P04406)
T6 construct: Proteins enriched by c-ponatinib from U2OS cell lysate; endogenous in cells; host or cells: U2OS cell lysate
Outline: as §1

[7] = biological target: T7, proteins of U2OS cell lysate (Homo sapiens, UniProt P30049)
T7 construct: Proteins enriched by c-ponatinib from U2OS cell lysate; endogenous in cells; host or cells: U2OS cell lysate
Outline: as §1

[8] = biological target: T8, proteins of U2OS cell lysate (Homo sapiens, UniProt P23396)
T8 construct: Proteins enriched by c-ponatinib from U2OS cell lysate; endogenous in cells; host or cells: U2OS cell lysate
Outline: as §1

[9] = biological target: T9, proteins of U2OS cell lysate (Homo sapiens, UniProt O43175)
T9 construct: Proteins enriched by c-ponatinib from U2OS cell lysate; endogenous in cells; host or cells: U2OS cell lysate
Outline: as §1

[10] = biological target: T10, proteins of U2OS cell lysate (Homo sapiens, UniProt O75947)
T10 construct: Proteins enriched by c-ponatinib from U2OS cell lysate; endogenous in cells; host or cells: U2OS cell lysate
Outline: as §1

T6 sequence (P04406 whole entry): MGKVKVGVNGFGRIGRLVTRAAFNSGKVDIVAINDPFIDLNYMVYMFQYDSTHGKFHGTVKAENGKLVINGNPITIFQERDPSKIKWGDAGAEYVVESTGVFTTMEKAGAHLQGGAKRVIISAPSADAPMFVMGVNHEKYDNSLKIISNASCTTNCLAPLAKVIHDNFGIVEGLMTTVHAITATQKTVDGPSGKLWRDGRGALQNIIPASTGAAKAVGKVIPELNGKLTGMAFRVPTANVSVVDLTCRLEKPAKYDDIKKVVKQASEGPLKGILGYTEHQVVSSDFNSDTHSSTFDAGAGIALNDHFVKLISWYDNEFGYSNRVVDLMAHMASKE
T1 sequence (P12814 whole entry): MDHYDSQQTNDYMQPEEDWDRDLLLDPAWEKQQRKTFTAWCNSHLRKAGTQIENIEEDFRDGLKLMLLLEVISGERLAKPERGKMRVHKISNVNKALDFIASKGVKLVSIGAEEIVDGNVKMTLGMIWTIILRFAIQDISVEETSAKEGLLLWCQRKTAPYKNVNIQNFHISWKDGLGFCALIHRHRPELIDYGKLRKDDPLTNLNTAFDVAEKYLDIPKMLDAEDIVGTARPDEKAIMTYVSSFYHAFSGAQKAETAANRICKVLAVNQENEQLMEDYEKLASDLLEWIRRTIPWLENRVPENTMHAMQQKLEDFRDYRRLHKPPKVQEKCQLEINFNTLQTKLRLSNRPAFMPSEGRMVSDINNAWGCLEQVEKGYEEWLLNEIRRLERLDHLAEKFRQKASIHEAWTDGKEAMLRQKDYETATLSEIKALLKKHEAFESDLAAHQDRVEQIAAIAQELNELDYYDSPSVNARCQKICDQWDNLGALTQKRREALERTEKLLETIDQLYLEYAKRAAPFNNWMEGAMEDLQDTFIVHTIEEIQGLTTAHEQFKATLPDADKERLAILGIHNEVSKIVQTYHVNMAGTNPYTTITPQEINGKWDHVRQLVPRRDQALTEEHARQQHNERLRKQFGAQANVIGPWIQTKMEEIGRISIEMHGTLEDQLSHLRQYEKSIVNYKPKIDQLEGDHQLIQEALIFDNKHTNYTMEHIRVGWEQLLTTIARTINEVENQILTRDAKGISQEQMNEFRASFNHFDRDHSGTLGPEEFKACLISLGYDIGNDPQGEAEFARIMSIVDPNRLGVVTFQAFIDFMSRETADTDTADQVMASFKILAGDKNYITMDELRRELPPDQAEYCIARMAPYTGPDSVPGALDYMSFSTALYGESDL
T2 sequence (P28072 whole entry): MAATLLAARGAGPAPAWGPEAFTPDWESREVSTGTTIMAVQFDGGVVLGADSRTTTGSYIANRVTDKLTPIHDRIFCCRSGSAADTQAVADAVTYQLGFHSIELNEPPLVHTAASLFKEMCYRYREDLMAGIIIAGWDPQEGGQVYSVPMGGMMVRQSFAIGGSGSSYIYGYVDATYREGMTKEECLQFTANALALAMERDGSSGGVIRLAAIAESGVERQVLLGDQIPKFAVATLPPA
T5 sequence (Q13233 whole entry): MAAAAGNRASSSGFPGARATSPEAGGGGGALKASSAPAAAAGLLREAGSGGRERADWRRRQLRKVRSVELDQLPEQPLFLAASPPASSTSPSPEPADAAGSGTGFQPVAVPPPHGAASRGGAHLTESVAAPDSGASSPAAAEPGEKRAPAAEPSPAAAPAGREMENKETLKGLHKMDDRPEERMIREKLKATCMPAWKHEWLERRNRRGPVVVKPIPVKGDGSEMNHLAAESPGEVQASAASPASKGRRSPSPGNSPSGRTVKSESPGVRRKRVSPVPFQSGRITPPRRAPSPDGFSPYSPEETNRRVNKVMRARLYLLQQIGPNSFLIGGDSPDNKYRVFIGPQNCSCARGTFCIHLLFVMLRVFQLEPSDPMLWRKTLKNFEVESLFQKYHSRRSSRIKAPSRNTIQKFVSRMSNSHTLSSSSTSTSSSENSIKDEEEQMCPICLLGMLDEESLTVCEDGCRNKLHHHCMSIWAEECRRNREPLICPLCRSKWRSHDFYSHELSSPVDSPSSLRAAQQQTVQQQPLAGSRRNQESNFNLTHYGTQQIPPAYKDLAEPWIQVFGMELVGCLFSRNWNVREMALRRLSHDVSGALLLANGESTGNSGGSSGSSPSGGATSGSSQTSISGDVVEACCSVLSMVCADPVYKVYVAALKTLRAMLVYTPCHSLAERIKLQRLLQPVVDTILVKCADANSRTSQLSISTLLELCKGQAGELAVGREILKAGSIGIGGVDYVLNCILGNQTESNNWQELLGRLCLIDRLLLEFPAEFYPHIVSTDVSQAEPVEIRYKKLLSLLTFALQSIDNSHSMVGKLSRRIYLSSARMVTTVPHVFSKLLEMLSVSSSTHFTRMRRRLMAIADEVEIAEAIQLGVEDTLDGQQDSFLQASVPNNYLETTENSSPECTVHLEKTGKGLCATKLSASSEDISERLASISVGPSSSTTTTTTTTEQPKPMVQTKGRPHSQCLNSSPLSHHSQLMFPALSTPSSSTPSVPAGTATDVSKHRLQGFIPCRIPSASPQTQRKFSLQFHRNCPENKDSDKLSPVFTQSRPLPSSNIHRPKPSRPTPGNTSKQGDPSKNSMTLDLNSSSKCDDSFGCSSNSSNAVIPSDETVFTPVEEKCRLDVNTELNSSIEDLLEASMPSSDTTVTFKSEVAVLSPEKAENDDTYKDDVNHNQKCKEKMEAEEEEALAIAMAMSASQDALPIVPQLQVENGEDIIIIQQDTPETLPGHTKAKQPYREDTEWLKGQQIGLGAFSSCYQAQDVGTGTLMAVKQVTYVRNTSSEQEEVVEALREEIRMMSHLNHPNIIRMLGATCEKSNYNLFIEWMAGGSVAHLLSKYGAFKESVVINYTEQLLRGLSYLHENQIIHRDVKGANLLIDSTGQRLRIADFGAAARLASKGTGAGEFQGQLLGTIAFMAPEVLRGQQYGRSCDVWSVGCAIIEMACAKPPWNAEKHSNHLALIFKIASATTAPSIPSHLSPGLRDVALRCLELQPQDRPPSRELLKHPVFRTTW
T7 sequence (P30049 23-168): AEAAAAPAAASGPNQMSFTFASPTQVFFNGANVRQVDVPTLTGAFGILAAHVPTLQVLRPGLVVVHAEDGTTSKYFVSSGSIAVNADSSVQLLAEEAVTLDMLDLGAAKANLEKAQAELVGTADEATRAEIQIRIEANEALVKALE
T9 sequence (O43175 whole entry): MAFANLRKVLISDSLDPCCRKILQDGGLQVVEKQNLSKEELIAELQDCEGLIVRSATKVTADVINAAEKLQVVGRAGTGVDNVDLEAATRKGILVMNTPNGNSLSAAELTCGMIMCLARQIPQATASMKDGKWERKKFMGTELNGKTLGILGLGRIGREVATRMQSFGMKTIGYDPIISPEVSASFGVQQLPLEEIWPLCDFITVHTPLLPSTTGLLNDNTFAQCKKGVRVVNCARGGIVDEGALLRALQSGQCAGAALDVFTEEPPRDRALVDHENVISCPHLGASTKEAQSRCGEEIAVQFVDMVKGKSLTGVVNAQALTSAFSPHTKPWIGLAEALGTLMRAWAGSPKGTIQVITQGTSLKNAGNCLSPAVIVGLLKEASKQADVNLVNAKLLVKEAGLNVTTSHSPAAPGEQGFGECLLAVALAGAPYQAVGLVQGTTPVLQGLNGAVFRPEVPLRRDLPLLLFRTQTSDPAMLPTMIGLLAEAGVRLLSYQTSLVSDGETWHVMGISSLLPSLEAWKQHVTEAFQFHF
T10 sequence (O75947 whole entry): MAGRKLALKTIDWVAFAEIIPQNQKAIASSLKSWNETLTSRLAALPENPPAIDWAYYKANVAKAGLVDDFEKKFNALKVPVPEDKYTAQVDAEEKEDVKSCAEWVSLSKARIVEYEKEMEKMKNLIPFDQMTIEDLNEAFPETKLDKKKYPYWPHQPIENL
T3 sequence (P29597 whole entry): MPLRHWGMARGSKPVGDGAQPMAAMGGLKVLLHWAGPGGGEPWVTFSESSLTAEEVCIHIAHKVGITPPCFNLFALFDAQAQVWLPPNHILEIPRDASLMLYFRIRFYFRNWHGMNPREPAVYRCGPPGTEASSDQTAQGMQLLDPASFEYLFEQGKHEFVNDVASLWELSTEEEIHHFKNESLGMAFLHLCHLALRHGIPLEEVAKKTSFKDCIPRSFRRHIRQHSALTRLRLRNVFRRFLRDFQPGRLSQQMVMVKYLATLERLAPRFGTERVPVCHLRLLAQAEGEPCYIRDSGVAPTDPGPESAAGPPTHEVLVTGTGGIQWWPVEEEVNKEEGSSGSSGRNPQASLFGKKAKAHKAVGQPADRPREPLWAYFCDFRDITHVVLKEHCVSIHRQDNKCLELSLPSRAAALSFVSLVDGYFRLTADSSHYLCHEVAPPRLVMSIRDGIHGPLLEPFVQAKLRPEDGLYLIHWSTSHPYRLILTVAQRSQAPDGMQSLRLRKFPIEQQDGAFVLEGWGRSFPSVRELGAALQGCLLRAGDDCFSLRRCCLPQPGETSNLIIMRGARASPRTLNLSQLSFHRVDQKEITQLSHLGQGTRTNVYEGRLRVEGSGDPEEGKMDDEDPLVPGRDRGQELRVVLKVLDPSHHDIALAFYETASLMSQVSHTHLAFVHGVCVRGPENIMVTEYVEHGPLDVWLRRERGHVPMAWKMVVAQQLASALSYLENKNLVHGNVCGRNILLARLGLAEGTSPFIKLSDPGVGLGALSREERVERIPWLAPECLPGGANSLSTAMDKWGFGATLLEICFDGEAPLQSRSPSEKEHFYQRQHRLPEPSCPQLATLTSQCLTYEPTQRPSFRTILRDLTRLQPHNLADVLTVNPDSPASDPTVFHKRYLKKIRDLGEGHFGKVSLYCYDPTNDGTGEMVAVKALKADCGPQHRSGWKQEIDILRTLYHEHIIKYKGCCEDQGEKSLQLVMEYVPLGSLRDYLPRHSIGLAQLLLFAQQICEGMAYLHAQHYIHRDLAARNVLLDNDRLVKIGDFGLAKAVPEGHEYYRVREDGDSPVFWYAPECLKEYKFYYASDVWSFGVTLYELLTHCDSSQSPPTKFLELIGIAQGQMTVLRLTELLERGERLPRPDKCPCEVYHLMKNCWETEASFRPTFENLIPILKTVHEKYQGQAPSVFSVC

SMILES | Average LFQ intensity ([1]; captured protein ACTN1, Rank 166) | Average LFQ intensity ([2]; captured protein PSMB6, Rank 145) | Average LFQ intensity ([3]; captured protein TYK2, Rank 155) | Average LFQ intensity ([4]; captured protein DLAT, Rank 215) | Average LFQ intensity ([5]; captured protein MAP3K1, Rank 139) | Average LFQ intensity ([6]; captured protein GAPDH, Rank 124) | Average LFQ intensity ([7]; captured protein ATP5D, Rank 121) | Average LFQ intensity ([8]; captured protein RPS3, Rank 210) | Average LFQ intensity ([9]; captured protein PHGDH, Rank 119) | Average LFQ intensity ([10]; captured protein ATP5H, Rank 115) | Average LFQ PON_WT ([1]; ACTN1, Alpha-actinin-1) | Average LFQ PON_WT ([2]; PSMB6, Proteasome subunit beta type-6) | Average LFQ PON_WT ([3]; TYK2, Non-receptor tyrosine-protein kinase TYK2) | Average LFQ PON_WT ([4]; DLAT, Dihydrolipoyllysine-residue acetyltransferase component of pyruvate dehydrogenase complex, mitochondrial) | Average LFQ PON_WT ([5]; MAP3K1, Mitogen-activated protein kinase kinase kinase 1) | Average LFQ PON_WT ([6]; GAPDH, Glyceraldehyde-3-phosphate dehydrogenase) | Average LFQ PON_WT ([7]; ATP5D, ATP synthase subunit delta, mitochondrial) | Average LFQ PON_WT ([8]; RPS3, 40S ribosomal protein S3) | Average LFQ PON_WT ([9]; PHGDH, D-3-phosphoglycerate dehydrogenase) | Average LFQ PON_WT ([10]; ATP5H, ATP synthase subunit d, mitochondrial)
Cc1ccc(C(=O)Nc2ccc(CN3CCN(CCCN)CC3)c(C(F)(F)F)c2)cc1C#Cc1cnc2cccnn12 [c-ponatinib, reference compound] | 22.3393 | 22.7359 | 22.5645 | 21.6984 | 22.7864 | 22.9925 | 23.0608 | 21.7357 | 23.086 | 23.183 | – | – | – | – | – | – | – | – | – | –
Cc1ccc(C(=O)Nc2ccc(CN3CCN(C)CC3)c(C(F)(F)F)c2)cc1C#Cc1cnc2cccnn12 [PON] | – | – | – | – | – | – | – | – | – | – | 22.3393 | 22.7359 | 22.5645 | 21.6984 | 22.7864 | 22.9925 | 23.0608 | 21.7356 | 23.086 | 23.183
